Test results from patent US10857209B2, “Lysosomal acid lipase and PPAR gamma ligands as immune therapies for cancer treatment” (Indiana University Research and Technology Corporation, priority 2016, dated 2020).

Tests used:
Type in all cases: cell-based, mouse
HD1B cells [1] = experiment: ROS measurement by flow cytometry in HD1A and HD1B cells; conditions: 40 nM, 60 minutes
Description: HD1A and HD1B cells were treated with solvent, rapamycin (40 nM), or PP242 (40 nM) for 60 minutes. Cells were washed and stained with 2 μM of 2′,7′-dichlorodihydrofluorescein diacetate stained (DCFDA, Invitrogen) which is nonfluorescent until the acetate group is removed by intracellular esterases and oxidation occurs within the cell (Invitrogen). The incubation was at 37° C. for 20 minutes, followed by washing with cold PBS. The ROS level was measured by flow cytometry.

mTOR signaling pathway = experiment: Western blot of mTOR downstream effector S6 phosphorylation in HD1A and HD1B cells
Description: HD1A and HD1B cells were lysed in the Cell Lytic M mammalian cell lysis/extraction buffer (Sigma-Aldrich) according to the manufacturer's instruction. Protein samples were fractionated on a Novex 4-20% Tris-Glycine Mini Gel (Invitrogen). After transferring to the polyvinylidene difluoride membrane (Bio-Rad), the membrane was blotted with 5% nonfat dry milk in 1×PBS, and incubated with rabbit anti-p-S6 (Ser235/236), anti-S6, anti-p-Drp1 (Ser616), anti-Drp1, and anti-actin primary antibodies (from Cell Signaling), or rat anti-LAMP1, rabbit anti-Opa1 antibodies (from Santa Cruz). Following incubation with the secondary antibody that conjugated with horse radish peroxidase, proteins were visualized with chemiluminescent substrate (Thermo Scientific) under ChemiDox MP Image System.
(§1) HD1A and HD1B cells were grown in 24-well plates to the desired confluence. Cells were treated with solvent (DMSO, 0.1%), rapamycin (40 nM), or PP242 (40 nM) for 1 hour, or NAC (100 μM, Sigma-Aldrich), or Tempol (10 μM, Sigma-Aldrich) overnight. Treated cells were replaced with the pre-warmed (37° C.) medium containing JC1 (5 μM, Molecular Probes) for 1 hour. Labeled cells were replaced with fresh medium and examined under the Nikon inverted fluorescence microscope.

HD1B cells [2] = experiment: Mitochondrial membrane potential assay (JC1) in HD1A and HD1B cells; conditions: for mitochondrial membrane potential (JC-1 staining): NAC 100 μM or Tempol 10 μM overnight
Description: as §1

CC(C)n1nc(-c2cc3cc(O)ccc3[nH]2)c2c(N)ncnc21 [PP242]
ROS production (HD1B cells [1]): decreased ROS production | mTOR downstream effector S6 phosphorylation (mTOR signaling pathway): blocked mTOR downstream effector S6 phosphorylation | mitochondrial membrane potential (JC1 staining) (HD1B cells [2]; mTOR inhibitor 40 nM, 1 hour): reversed the damaged mitochondrial membrane potential

CC(=O)N[C@@H](CS)C(=O)O [NAC]
mitochondrial membrane potential (JC-1 staining) (HD1B cells [2]): partially improved the condition of the mitochondrial membrane potential

CC1(C)CC(O)CC(C)(C)N1[O] [TEMPOL]
mitochondrial membrane potential (JC-1 staining) (HD1B cells [2]): partially improved the condition of the mitochondrial membrane potential
